In patent publication US9901650B2, “Methods for evaluating brain-wide paravascular pathway for waste clearance function and methods for treating neurodegenerative disorders based thereon” (University of Rochester, priority 2013, dated 2018):
“Also recorded” adds a separate entry of the source. Like-named read-outs stand apart in the source and are kept apart here. No end group written: not given here.

How the values were obtained:
[1] = K-means cluster analysis of contrast-enhanced MRI, 4 mid-sagittal slices
Experimental: Non-parametric segmentation to group voxels in the MRI images on the basis of similar kinetics was performed using a k-means cluster algorithm (PMOD Version 3.307, PMOD Technologies, Ltd, Zurich, Switzerland) on four sagittal slices at the level of the aqueduct from each of the 4D T1-weighted MRIs. A volume-of-interest mask containing the brain only was created for the cluster analysis. The number of clusters (K) used was determined by the K which was able to segment out voxels adjacent to the large vessels such as basilar artery (including pituitary recess) and olfactory artery complex. This was done on an interactive, per animal basis.
All data are presented as mean±SD.

[2] = Dynamic contrast-enhanced MRI after intrathecal infusion of paramagnetic contrast: regional tissue uptake (TACs, mAUC)
Experimental: Female Sprague Dawley rats were used (Taconics, body weight: 220-280 g). For anesthesia, the animals were induced with 3% isofluorane in oxygen using an induction chamber and then received an intra-peritoneal injection of 40 mg/kg […] (Nembutal® Sodium solution, OVATION, Pharmaceuticals, Inc., Deerfield, Ill., USA). The animals were allowed to breathe spontaneously during the entire experiment. Non-invasive monitors (pulse-oximetry, respiratory rate and rectal temperature probe, SA Instruments, Inc., Stony Brook, N.Y.) were placed to assure adequate oxygenation (O2-saturation>97%), ventilation (respiratory rate 50-65 breath per minute) and normal body temperature (36.5° C.-37.5° C.) during the surgical procedures. A 24-gauge catheter was inserted into the tail vein for administration of fluids and supplemental anesthesia. The animal was positioned in a stereotaxic frame (Kopf Instruments, frame #9) and the head flexed to 50 degrees. For the brief surgical procedure, anesthesia was supplemented with isoflurane (0.8-1.2%) delivered in an 1:1 O2:Air mixture.
The atlanto-occipital membrane was exposed via a midline dorsal neck incision and a small incision was made to expose the underlying dura mater. A polyethylene catheter (6-cm long, 0.28 mm ID×0.61 mm OD, (Solomon Scientific, Plymouth Meeting, Pa.)) filled with normal saline was advanced 1-mm into the intrathecal space via a small durotomy made using a 23-gauge needle and was fixed and sealed with super glue. The skin incision was closed around the catheter.
Following surgery, the rats were flipped supine and positioned in a custom-made acrylic cradle fitted with a head fixation device and a snout mask for delivery of supplemental oxygen. The head of the animal was positioned on top of a 3.0 cm custom-made radio-frequency (rf) receiver coil. Non-invasive, MRI compatible monitors (pulse-oximetry, respiratory rate and rectal temperature probe, SA Instruments, Inc., Stony Brook, N.Y.) were repositioned for continuous monitoring of vital signs while the animal underwent MRI imaging. During imaging, body temperature was kept strictly within 36.5-37.5° C. during imaging using a computer assisted air heating system (SA Instruments, Inc., Stony Brook, N.Y.). The intrathecal catheter was connected to a long PE 20 line filled with paramagnetic MR contrast diluted in 0.9% NaCl attached to a 1 cc-syringe and microinfusion pump (Baxter Model AS50 infusion Pump, Baxter Healthcare Corporation, Illinois, USA). The tail vein catheter was used for maintenance hydration (0.9% NaCl, 4 cc/kg/hr) and supplemental anesthesia (Nembutal®, 5-10 mg/kg IV) administered every 2 hrs as guided by the respiratory rate.
All imaging protocols were performed on a 9.4T/20 MRI instrument interfaced to a Bruker Advance console and controlled by Paravision 5.0 software (Bruker Bio Spin, Billerica, Mass.). A custom-made 3-cm surface radio-frequency coil was used as a receiver and a 16-cm diameter volume coil (Bruker) was used as a transmitter. […] For all experiments a 60 mM (1:8 volume ratio diluted in 0.9% NaCl) Gd-DTPA phantom placed in the vicinity of animal's head was used for image intensity normalization over the time series. […] A total of 80 μl of the paramagnetic contrast agent was delivered intrathecally at an infusion rate of 1.6 μl/min (total infusion time: 50 min). After completion of the intrathecal infusion, the 3D MRI acquisitions continued over 3.9 hrs. At the end of the experiment the animal was euthanized with an overdose of Nembutal.
The general MRI image processing procedure consisted of head motion correction, intensity normalization, smoothing and voxel-by-voxel conversion to % of baseline signal. SPM8 (World Wide Web at fil.ion.ucl.ac.uk/spm) was used for this. First, the acquired T1-weighted MRI images were exported as DICOM files and converted to 3D Nlfti image format.

[3] = Dynamic integrated MRI-PET imaging after intrathecal infusion; conditions: lumbar intrathecal infusion
Experimental: (§1) Sprague Dawley rats (2-3 month old females) were anesthetized with phenobarbital and lumbar intrathecal catheters placed. Imaging was performed using a custom-built, MRI-compatible PET scanner for the rat brain in combination with a 9.4T microMRI (ref). […] The PET ring (ID 38 mm and accommodating the head of a rat) consists of 12 detector blocks consisting of a 4×8 array of 2.22×2.22×5 mm^3 lutetium oxyorthosilicate (LSO) crystals assembled with a thin reflective foil and coupled to a matching non-magnetic S8550 APD array (ref). PET data are transferred via optical fibers to an external (PCI)-based data acquisition board (ref). For simultaneous PET/MRI imaging a custom-made volume RF coil which fits inside the PET ring was used. The 9.4T microMRI used in all experiments is a superconducting horizontal bore magnet (Bruker Biospin 94/20, 400 MHz, Magnex scientific) interfaced to a Bruker Advance console and controlled by Paravision 5.0 software (Bruker Bio Spin, Billerica, Mass.). The magnet is equipped with an actively shielded combined RT-shim and gradient system (B-GA 12S) that can produce a maximum gradient strength of 200 mT/m. […]

[4] = rat, in vivo
Experimental: as §1

glymphatic system [5] = experiment: Brain clearance of 125I-Aβ40 and 14C-inulin after injection into the frontal cortex, pharmacological intervention; format: in vivo, mice
Experimental: The role of RAS on clearance of exogenous ^125I-Aβ and ^14C-inulin were determined at 30 minutes after their injection into the frontal cortex (Xie et al., 2013).
Briefly, a stainless steel guide cannula was implanted stereotaxically into the right caudate-putamen or frontal cortex of anesthetized mice (ketamine (100 mg/kg) and xylazine (10 mg/kg). For the frontal cortex, the coordinate of the cannula tip was 0.7 mm anterior and 3.0 mm lateral to the bregma, and 1.3 mm below the surface of the brain. Animals were allowed to recover after surgery. The experiments were performed before substantial chronic process occurred, but allowing time for the BBB repair to large molecules, as reported (Deane et al., 2004). Drugs were pre-injected for 10 minutes before injection of the radio-labeled molecules.
Injection of the mixture of tracers: Mock CSF (0.5 μL) containing ^125I-labeled Aβ40 (10 nM monomer) together with ^14C-inulin (0.05 μCi, an inert molecule for bulk flow) was microinfused into brain ISF over 5 minutes.
At the end of the experiments brain was removed and prepared for radioactivity analysis and TCA analyses.
^125I-radioactivities were determined in a gamma counter (Wallac Vizard Gamma Counter, Perkin Elmer). For ^14C-counting, the samples were solubilized in 0.5 ml tissue solubilizer (Perkin Elmer) overnight, followed by addition of 5 ml of scintillation cocktail (Packard Ultima Gold) and analyzed in a liquid scintillation counter (Beckman Coulter Counter).
All calculations of clearance parameters were carried out as described above or by routine methods (Deane et al., 2004; Xie et al., 2013). Briefly, the percentage of radioactivity remaining in the brain after microinjection was determined as % recovery in brain=100×(Nb/Ni), where Nb is the radioactivity remaining in the brain at the end of the experiment and Ni is the radioactivity injected into the brain ISF, i.e., the d.p.m. for ^14C-inulin and the c.p.m. for the TCA-precipitable ^125I-radioactivity. Inulin was used as a metabolically inert polar molecule which is neither transported across the BBB nor retained by the brain; its clearance rate provides a measure of the ISF convective bulk flow. For each group there were 3-6 mice, and data expressed as mean±SEM. P<0.5 was taken as statistically significant as determined using T-test.

glymphatic system [6] = experiment: Brain influx of 125I-Aβ40 and 14C-inulin after injection into the cisterna magna, pharmacological intervention; format: in vivo, mice
[7] = Intra-striate radio-tracer injection: interstitial solute clearance from the brain, wild type vs Aqp4-null
Experimental: To evaluate the pathways and rates of interstitial fluid and solute clearance from the brain, fluorescent and radio-labeled tracers were injected stereotactically into the brain parenchyma. Anesthetized animals were fixed in a stereotaxic frame and a 33GA needle was inserted via a small burr hole into the brain at the following coordinates: intra-cortical injections (0.22 mm caudal, 2.0 mm lateral, 1.75 mm ventral to bregma), intra-striate injections (0.22 mm caudal, 2.5 mm lateral, 3.5 mm ventral to bregma), intrathalamic injections (1.82 mm caudal, 1.25 mm lateral, 3.75 mm ventral to bregma). After needle insertion, 30 minutes was allowed to elapse to allow the needle track to swell closed. 1.0 μl of tracer (dissolved in artificial CSF) was injected at a rate of 17 nl/min.
15 min, 30 min, 1 h or 2h later, the animal was rapidly decapitated and the brain harvested. The brain was solubilized as above, and the radioactivity present in the brain was measured by liquid scintillation spectrometry. All radioactivity values were normalized to 1 μl injection standards taken immediately prior to each intra-parenchymal injection.

[8] = Intracisternal radio-tracer injection: accumulation in the brain parenchyma
Experimental: Anesthetized mice were fixed in a stereotaxic frame and a 30GA needle was inserted into the cisterna magna. For intracisternal injections, 10 μl of CSF tracer was injected at a rate of 2 μl/min over 5 minutes with a syringe pump (Harvard Apparatus).
After 15, 30 or 45 minutes, animals were rapidly decapitated, the skull opened, the dura removed and the brain harvested. The brain was solubilized in 2 ml Soluene (Sigma) at 45° C. overnight. 10 ml Hionic Fluor liquid scintillation cocktail (Perkin Elmer) was added and radioactivity was measured in a Multipurpose Scintillation Counter (Beckman Coulter). Brain radioactivity was normalized to total radioactivity detected in a 10 μl aliquot put directly into a scintillation vial immediately before intracisternal radio-tracer injection and expressed as the % of total injected radioactivity. ^3H-mannitol and ^3H-dextran accumulation in the brain was compared by 2-way ANOVA with Bonferroni's post-hoc test.

AQP4-M1 expression = AQP4-M1 expression by qPCR in cultured primary cortical astrocytes; format: cell-based, mouse; conditions: vs. control; siRNA transfected for six days
Source text: (A) The Aqp4 gene has two transcription initiation site, with transcription initiated at each site resulting in two AQP4 mRNA variants: AQP4-M1 which includes Exons 0-4 of the Aqp4 gene and AQP4-M23 which lacks Exon 0. (B) AQP4-M23 (the predominant form in the CNS under physiological conditions) permits perivascular AQP4 packing while AQP4-M1 prevents it; thus increasing AQP4-M1 expression impairs AQP4 polarization (Crane et el. J Biol Chem 2009; Furman et al. Proc Nat Acad Sci 2003). (C) The expression of AQP4-M1 was evaluated by real-time quantitative PCR (qPCR) in the mouse ipsilateral cortex 3 days after TBI using PCR primers specifically targeting Exon 0 of the AQP4-M1 transcript. Compared to AQP4-M1 expression in the control (sham) cortex, TBI increased AQP4-M1 expression by approximately two-fold (*P<0.05, t-test; n=5 per group). (D) Using an siRNA-based approach targeting Exon 0 of the AQP4-M1 variant, the expression of AQP4-M1 could be efficiently knocked down in cultured primary mouse cortical astrocytes. Three siRNA duplexes were designed to target Exon 0 of the AQP4-M1 transcript, and primary mouse astrocytes were transfected with these siRNA duplexes for six days. […] Thus, we tested whether inhibition of STAT3 signaling in primary mouse cortical astrocytes could reduce AQP4-M1 expression. […]

[9] = ratio of average mAUC of region to average mAUC of pituitary recess, mean ± SD
[10] = agent 1 μM, 30 minutes, frontal cortex

For `CNC[C@H](O)[C@@H](O)[C@H](O)[C@H](O)CO.CNC[C@H](O)[C@@H](O)[C@H](O)[C@H](O)CO.O=C([O-])CN(CCN(CC(=O)[O-])CC(=O)O)CCN(CC(=O)[O-])CC(=O)O.[Gd+3]` [Gd-DTPA, 1-deoxy-1(methylamino)D-glucitol dihydrogen [N,N-bis[2-[bis(carboxymethyl)amino]ethyl]glycinato (5-)]gadolinite(2-)(2:1)], the “#Voxels - Zone 3, mean (SD)” value ([1]; most distally labeled voxels) was 18295 (7407), the “#Voxels - Zone 1, mean (SD)” value ([1]; para-vascular zone) was 4048 (2146) and the “Zone 2#Voxels*AUC/Zone 1#Voxels*AUC, mean (SD)” value ([1]; rat, in vivo) was 1.62 (0.60). The “time-to-peak of the para-vascular red cluster” value ([1]; rat, in vivo) was about 90 min, the “#Voxels - Zone 2, mean (SD)” value ([1]; tissue adjacent to zone 1) was 15835 (5690) and the “mAUC at the pituitary recess” value ([2]; not normalized, mean ± SD) was 743±266 % signal change per time interval. For the same molecule, the “time at which average uptake in the cerebellum peaked / reached apparent plateau” value ([2]; post-injection) was about 90 min, the “time of peak of signal changes induced within the parenchyma” value ([2]; post-injection) was 60 to 80 min and the “mAUC, Aqueduct” value [2, 9] was 0.34 ± 0.23. For the same molecule, the “mAUC, Cerebellum” value [2, 9] was 0.28 ± 0.11, the “mAUC, Olfactory Bulb” value [2, 9] was 0.24 ± 0.11 and the “mAUC, Pontine Nucleus” value [2, 9] was 0.17 ± 0.09. The “mAUC, Pineal recess” value ([2]; ratio of average mAUC of region to average mAUC of pituitary recess, mean ± SD, intrathecal infusion) was 1.01 ± 0.35 and the “transport through the brain-wide glymphatic pathway” value [3] was “with some ‘restriction’”.
With “2-deoxy-2-(^18F)fluoro-D-glucose [^18FDG]” the “transport through the brain-wide glymphatic pathway” value [4] was “moves rapidly through the brain-wide glymphatic pathway”.
For `NC(=O)CC[C@@H]1NC(=O)[C@H](Cc2ccccc2)NC(=O)[C@H](Cc2ccc(O)cc2)NC(=O)[C@@H](N)CSSC[C@@H](C(=O)N2CCC[C@H]2C(=O)N[C@@H](CCCN=C(N)N)C(=O)NCC(N)=O)NC(=O)[C@H](CC(N)=O)NC1=O` [vasopressin], the “brain clearance of Aβ” value (glymphatic system [5]; [10]) was “reduced” and the “brain clearance of inulin” value (glymphatic system [5]; [10]) was “reduced”.
In the case of `CC(=N)NCCCC[C@H](N)C(=O)O` [L-NIL], the “influx of Aβ with dose” value (glymphatic system [6]; mouse, in vivo) is reported as “dose dependent increase”, the “influx of inulin with dose” value (glymphatic system [6]; mouse, in vivo) is reported as “dose dependent increase” and the “clearance of Aβ” value (glymphatic system [5]; 1 mM) is reported as “increased”. The clearance of inulin (glymphatic system [5]; 1 mM) was “increased”.
With `OC[C@@H](O)[C@@H](O)[C@H](O)[C@H](O)CO` [[^3H]mannitol] the “reduction of clearance from the brain interstitium in Aqp4-null mice compared to wild type” value ([7]; intra-striate injection) was about 70%, the “approximate maximal influx, plateau of one-phase association fit” value ([8]; % of total injected radioactivity, R2=0.3597) was 39.96±5.55% and the “proportion of injected tracer detectable in the brain” value ([8]; within 45 min of intracisternal injection) was about 40%.
For “atrial natriuretic peptide (ANP): a peptide that reduces body water and sodium (SLRRSSCFGGRMDRIGAQSGLGCNSFRY; ends and bridges not checked; cysteine pairing not given here; UniProt P01160 124-151, looked up)”, the “brain clearance of Aβ” value (glymphatic system [5]; [10]) was “reduced” and the “brain clearance of inulin” value (glymphatic system [5]; [10]) was “reduced”.
In the case of “^125I-amyloid β1-40: radio-labeled amyloid β1-40 peptide tracer”, the “rate of clearance from the brain in wild-type mice, in words” value ([7]; mouse, in vivo) is reported as “exceeded that of either [^3H]mannitol or [^3H]dextran-10”, the “reduction of clearance from the brain interstitium in Aqp4-null mice compared to wild type” value ([7]; mouse, in vivo) is reported as about 55% and the “accumulation in the brain after intracisternal injection, in words” value ([8]; mouse, in vivo) is reported as “increased in a manner comparable to [^3H]dextran-10”.
For “angiotensin (1-7): active angiotensin metabolite acting on the Mas receptor; opposes angiotensin II (DRVYIHP; Angiotensin 1-7; UniProt P01019 25-31, looked up)”, the “clearance of Aβ at 15 minutes” value (glymphatic system [5]; 1 nM and 10 nM, 15 minute time point) was “increased; also recorded: greater change between concentrations 10 nM and 1 nM” and the “clearance of Aβ with dose” value (glymphatic system [5]; 1 μM, 0.1 μM and 0.01 μM, pre-injected into frontal cortex, 30 minutes) was “increased progressively with dose”.
For `O=[N+]([O-])c1ccc2c(c1)S(=O)(=O)C=C2` [STATTIC], the AQP4-M1 expression (AQP4-M1 expression) was “significantly reduced”.
For “angiotensin II: peptide of the renin-angiotensin system acting on AT1R and AT2R”, the “influx of Aβ40 into brain” value (glymphatic system [6]; agent 1 μM injected into the cistern magna, 30 minutes) was “decrease”, the “influx of inulin into brain” value (glymphatic system [6]; angiotensin II 1 μM, losartan route not given, 30 minutes) was “decrease” and the “brain clearance of Aβ” value (glymphatic system [5]; [10]) was “reduced”. For the same molecule, the “brain clearance of inulin” value (glymphatic system [5]; [10]) was “reduced”, the “levels of Aβ40 remaining in brain (recovery)” value (glymphatic system [5]; [10]) was “increase” and the “levels of inulin remaining in brain (recovery)” value (glymphatic system [5]; [10]) was “increase”.
